18 molecules from patent US20120225896A1, “NOVEL 2-PYRIDONE DERIVATIVE AND PHARMACEUTICAL PRODUCT CONTAINING SAME” (KOWA COMPANY, LTD., priority 2009, published 2012) can be followed below.

Molecules are shown by their SMILES. Read-outs that look alike come from different tables or passages of the source.

Test [1] deals with T1, human PPARγ2 (Homo sapiens, UniProt P37231).
T1 construct: the amino acids 182 to 505 of human PPARγ2; expressed in transfected cells; African green monkey kidney
In words: PPARγ activation activity, Gal4-PPARγ2 LBD chimera luciferase transfection assay in COST cells. Format: cell-based. As to the method:
PPARγ Activation Activity
The agonistic activity of the compounds of the invention on PPARγ was measured based on the transfection assay using COST cells (DS Pharma Biomedical Co., Ltd., Osaka, Japan), which are the cell line derived from the kidney of the African green monkey. COST cells were cultured under 5% CO2 concentration, and DMEM medium containing 10% fetal bovine serum, glutamic acid, and antibiotics was used as a medium.
As an expression vector, a chimera in which DNA binding domain of Ga14, which is a yeast transcription factor, and ligand binding domain of human PPARγ2 are fused, i.e., a fused product between the amino acids 1 to 147 of Gal4 transcription factor and the amino acids 182 to 505 of human PPARγ2, was used. Furthermore, as a reporter vector, a firefly luciferase containing five copies of Gal4 recognition sequence in the promoter region was used. Plasmid transfection to the cells was performed according to a method which uses jetPEI (trade name, manufactured by Funakoshi Co., Ltd., Tokyo, Japan). Furthermore, β-galactosidase expression vector was employed as an internal standard.
After the transfection of the cells, the medium was replaced with a DMEM medium (containing 1% serum) added with the test compound, and the cells were further cultured for 16 hours. After that, the luciferase activity and β-galactosidase activity in the cell lysis solution were measured.
For the present test, dimethyl sulfoxide (DMSO) was used for dissolution and dilution of the test compounds, and during the cell treatment, the DMSO concentration in DMEM medium (containing 1% serum) was adjusted to 0.1%. The 50% effective concentration of the test compound (EC50, 50% effect concentration) was calculated by using SAS Preclinical Package Ver 5.0 (trade name, manufactured by SAS institute Japan Co., Tokyo, Japan), which is a statistical analysis program.
As shown in the Table 2, it was confirmed that the compounds of the present invention have a potent PPARγ activation activity. Under the same condition, the PPARγ activation activity of telmisartan, i.e., EC50, was 1 to 5 μM.

Test [2] deals with T2, angiotensin II type 1 receptor (Oryctolagus cuniculus, UniProt P34976).
T2 construct: By using a specimen of isolated rabbit blood vessels; from tissue; host or cells: rabbit thoracic aorta ring (New Zealand White, male)
T2 sequence (P34976 1-359): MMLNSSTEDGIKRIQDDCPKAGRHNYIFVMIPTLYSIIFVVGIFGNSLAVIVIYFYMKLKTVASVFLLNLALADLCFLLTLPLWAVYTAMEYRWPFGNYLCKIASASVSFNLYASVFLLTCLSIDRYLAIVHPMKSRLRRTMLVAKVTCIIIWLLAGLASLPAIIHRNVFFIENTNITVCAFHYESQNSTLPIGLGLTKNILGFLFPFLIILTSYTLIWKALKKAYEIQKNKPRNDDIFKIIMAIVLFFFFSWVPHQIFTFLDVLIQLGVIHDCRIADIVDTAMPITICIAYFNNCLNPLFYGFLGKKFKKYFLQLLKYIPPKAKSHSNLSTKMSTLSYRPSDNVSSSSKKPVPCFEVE
Nature of the test: Angiotensin II antagonistic activity in isolated rabbit blood vessels (angiotensin II-induced contraction of thoracic aorta ring). Format: cell-based. To be noted: angiotensin II (10 nM)-induced contraction, 37° C. An excerpt: Angiotensin II Antagonistic Activity in Isolated Rabbit Blood Vessels
By using a specimen of isolated rabbit blood vessels, antagonistic activity of the compounds of the invention against angiotensin II type 1 receptor was estimated from a dose-response curve of angiotensin II-induced blood vessel contraction. Specifically, the specimen of thoracic aorta ring of a rabbit (New Zealand White: male, 2.4 to 3.0 kg) was suspended in a magnus bath filled with Krebs-Henseleite buffer (composition: 118 mM NaCl, 4.7 mM KCl, 2.55 mM CaCl2, 1.18 mM MgSO4, 1.18 mM KH2PO4, 24.88 mM NaHCO3, and 11.1 mM D-glucose), and angiotensin II (10 nM)-induced contraction was obtained in the presence of the compounds of each example (1 nmol/L to 10 μmol/L). During the measurement, the inside temperature of the magnus bath was maintained at 37° C. and the bath was continuously ventilated with a sufficient amount of mixed gas (95% O2 and 5% CO2). The angiotensin II-induced contraction was converted into a relative value (%) that is based on the angiotensin II (10 nM)-induced contraction in the absence of the compounds of each example. From the concentration-response curve obtained therefrom, 50% inhibition concentration (IC50 value) was calculated by using SAS Preclinical Package Ver5.0 (trade name, manufactured by SAS institute Japan Co., Tokyo, Japan), which is a statistical analysis program.
As shown in the Table 1, it was confirmed that the compounds of the invention have a potent angiotensin II antagonistic activity.

Setting [3] is: COST cells transfected with Gal4 (aa 1-147)/human PPARγ2 (aa 182-505) chimera, luciferase reporter, 16 hours, read-out: EC50.

What is called EC50 is the midpoint of the concentration-response curve. For orientation: IC50 means the concentration that inhibits the measured activity by half. A lower IC50 goes with greater potency.

T1 sequence (P37231 182-505): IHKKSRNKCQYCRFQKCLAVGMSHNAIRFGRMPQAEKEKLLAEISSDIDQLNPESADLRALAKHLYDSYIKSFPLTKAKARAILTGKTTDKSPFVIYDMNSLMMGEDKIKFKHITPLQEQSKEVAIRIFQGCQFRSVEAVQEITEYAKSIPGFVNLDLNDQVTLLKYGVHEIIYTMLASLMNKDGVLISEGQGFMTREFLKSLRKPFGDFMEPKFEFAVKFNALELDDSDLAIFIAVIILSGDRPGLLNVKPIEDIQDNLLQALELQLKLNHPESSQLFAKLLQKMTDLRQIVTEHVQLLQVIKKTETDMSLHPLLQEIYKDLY
T1 sequence (P04386 1-147 partner limits assumed): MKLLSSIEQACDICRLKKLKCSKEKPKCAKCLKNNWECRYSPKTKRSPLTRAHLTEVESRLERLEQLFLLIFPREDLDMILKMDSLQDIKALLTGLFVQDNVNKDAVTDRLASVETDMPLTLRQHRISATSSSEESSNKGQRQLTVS

As to `CCCc1cc(C)n(Cc2ccccc2)c(=O)c1Cc1ccc(-c2ccccc2-c2nnn[nH]2)cc1` [Example 3, 3-{[2′-(1H-tetrazol-5-yl)biphenyl-4-yl]methyl}-1-benzyl-6-m ethyl-4-propylpyridin-2(1H)-one], the EC50 in test [1] (setting [3]) stood at 320 nM.

For the molecule `CCCCc1cc(C)n(Cc2ccccc2)c(=O)c1Cc1ccc(-c2ccccc2-c2nnn[nH]2)cc1` [Example 1, 3-{[2′-(1H-tetrazol-5-yl)biphenyl-4-yl]methyl}-1-benzyl-4-butyl-6-methylpyridin-2(1H)-one], the concentration giving a half-maximal response (EC50) in test [1] (setting [3]) came out at 400 nM. In the case of `CCCCc1cc(C)n(CCOC)c(=O)c1Cc1ccc(-c2ccccc2-c2nnn[nH]2)cc1` [Example 9, 3-{[2′-(1H-tetrazol-5-yl)biphenyl-4-yl]methyl}-4-butyl-1-(2-methoxyethyl)-6-methylpyridin-2(1H)-one], in test [2], the IC50 stood at 160 nM. The EC50 in test [1] (setting [3]) is 560 nM. Turning to `CCCCCc1cc(C)n(Cc2ccccc2)c(=O)c1Cc1ccc(-c2ccccc2-c2nnn[nH]2)cc1` [Example 5, 3-{[2′-(1H-tetrazol-5-yl)biphenyl-4-yl]methyl}-1-benzyl-6-m ethyl-4-pentylpyridin-2(1H)-one], the EC50 in test [1] (setting [3]) stood at 500 nM. On to `CCCOc1cc(C)n(Cc2ccccc2)c(=O)c1Cc1ccc(-c2ccccc2-c2nnn[nH]2)cc1` [Example 17, 3-{[2′-(1H-tetrazol-5-yl)biphenyl-4-yl]methyl}-1-benzyl-6-m ethyl-4-propoxypyridin-2(1H)-one], for which the EC50 in test [1] (setting [3]) amounted to 580 nM.

Molecule `CCCCc1cc(C)n(CCOC)c(=O)c1Cc1ccc(-c2ccccc2-c2noc(=O)[nH]2)cc1` [Example 10, 3-{4′-{[4-butyl-1-(2-methoxyethyl)-6-methyl-2-oxo-1,2-dihydropyridin-3-yl)methyl]biphenyl-2-yl}-1,2,4-oxadiazol-5(4H)-one] had an IC50 in test [2] of 190 nM. For the same molecule, the EC50 in test [1] (setting [3]) was determined as 450 nM. For `CCCCCc1cc(C)n(Cc2ccccc2)c(=O)c1Cc1ccc(-c2ccccc2-c2noc(=O)[nH]2)cc1` [Example 6, 3-{4′-[(1-benzyl-6-methyl-2-oxo-4-pentyl-1,2-dihydropyridin-3-yl)methyl]biphenyl-2-yl}-1,2,4-oxadiazol-5(4H)-one], the EC50 in test [1] (setting [3]) was 260 nM.

For `CCCOc1cc(C)n(Cc2ccccc2)c(=O)c1Cc1ccc(-c2ccccc2-c2noc(=O)[nH]2)cc1` [Example 18, 3-{4′-[(1-benzyl-6-methyl-2-oxo-4-propoxy-1,2-dihydropyridin-3-yl)methyl]biphenyl-2-yl}-1,2,4-oxadiazol-5(4H)-one], the EC50 in test [1] (setting [3]) worked out at 140 nM. As to `CCCCc1cc(C)n(CCc2ccccc2)c(=O)c1Cc1ccc(-c2ccccc2-c2noc(=O)[nH]2)cc1` [Example 8, 3-{4′-[(4-butyl-6-methyl-2-oxo-1-phenethyl-1,2-dihydropyridin-3-yl)methyl]biphenyl-2-yl}-1,2,4-oxadiazol-5(4H)-one], in test [2], the IC50 is 390 nM. The EC50 in test [1] (setting [3]) amounted to 200 nM. On to `CCCCc1cc(C)n(Cc2ccccc2)c(=O)c1Cc1ccc(-c2ccccc2-c2noc(=O)[nH]2)cc1` [Example 2, 3-{4′-[(1-benzyl-4-butyl-6-methyl-2-oxo-1,2-dihydropyridin-3-yl)methyl]biphenyl-2-yl}-1,2,4-oxadiazol-5(4H)-one], for which, in test [1] (setting [3]), the EC50 is 260 nM.

Take `CCCc1nc2c(C)cc(-c3nc4ccccc4n3C)cc2n1Cc1ccc(-c2ccccc2C(=O)O)cc1` [telmisartan, reference compound]: in test [1], the EC50 is 1000 to 5000 nM.

Consider `CCCCc1cc(C)n(-c2ncc(OC)cn2)c(=O)c1Cc1ccc(-c2ccccc2-c2noc(=O)[nH]2)cc1` [Example 14, 3-{4′-{[4-butyl-1-(5-methoxypyrimidin-2-yl)-6-methyl-2-oxo-1,2-dihydropyridin-3-yl]methyl}biphenyl-2-yl}-1,2,4-oxadiazol-5(4H)-one], for which, in test [2], inhibition was half-maximal at 540 nM (IC50). In addition, the EC50 in test [1] (setting [3]) is 1270 nM. As to `CCCc1cc(C)n(Cc2ccccc2)c(=O)c1Cc1ccc(-c2ccccc2-c2noc(=O)[nH]2)cc1` [Example 4, 3-{4′-[(1-benzyl-6-methyl-2-oxo-4-propyl-1,2-dihydropyridin-3-yl)methyl]biphenyl-2-yl}-1,2,4-oxadiazol-5(4H)-one], the EC50 in test [1] (setting [3]) worked out at 200 nM.

`CCCCc1cc(C)n(-c2ncc(OCC)cn2)c(=O)c1Cc1ccc(-c2ccccc2-c2noc(=O)[nH]2)cc1` [Example 12, 3-{4′-{[4-butyl-1-(5-ethoxypyrimidin-2-yl)-6-methyl-2-oxo-1,2-dihydropyridin-3-yl]methyl}biphenyl-2-yl}-1,2,4-oxadiazol-5(4H)-one]: half-maximal inhibition in test [2] (IC50) required 460 nM. Moreover, the EC50 in test [1] (setting [3]) is 590 nM.

In turn, `CCCCc1cc(C)n(CCc2ccccc2)c(=O)c1Cc1ccc(-c2ccccc2-c2nnn[nH]2)cc1` [Example 7, 3-{[2′-(1H-tetrazol-5-yl)biphenyl-4-yl]methyl}-4-butyl-6-methyl-1-phenethylpyridin-2(1H)-one] displayed an IC50 in test [2] of 580 nM. Moreover, in test [1] (setting [3]), the EC50 is 270 nM. Take `CCCCc1cc(C)n(-c2ccccn2)c(=O)c1Cc1ccc(-c2ccccc2-c2nnn[nH]2)cc1` [Example 15, 3-{[2′-(1H-tetrazol-5-yl)biphenyl-4-yl]methyl}-4-butyl-6-methyl-1-(pyridin-2-yl)pyridin-2(1H)-one]: half-maximal inhibition in test [2] (IC50) required 460 nM. Moreover, the EC50 in test [1] (setting [3]) was found to be 1660 nM.

In test [2], `CCCCc1cc(C)n(-c2ncc(OCC)cn2)c(=O)c1Cc1ccc(-c2ccccc2-c2nnn[nH]2)cc1` [Example 11, 3-{[2′-(1H-tetrazol-5-yl)biphenyl-4-yl]methyl}-4-butyl-1-(5-ethoxypyrimidin-2-yl)-6-methylpyridin-2(1H)-one] displayed an IC50 of 330 nM. In test [1] (setting [3]), the EC50 turned out to be 2220 nM. As to `CCCCc1cc(C)n(-c2ccccn2)c(=O)c1Cc1ccc(-c2ccccc2-c2noc(=O)[nH]2)cc1` [Example 16, 3-{4′-{[4-butyl-6-methyl-2-oxo-1-(pyridin-2-yl)-1,2-dihydropyridin-3-yl]methyl}biphenyl-2-yl}-1,2,4-oxadiazol-5(4H)-one], the EC50 in test [1] (setting [3]) came to 1400 nM.
